{
  "source": "patent US20130324541A1",
  "about": "“POTENTIATOR OF ANTITUMOR ACTIVITY OF CHEMOTHERAPEUTIC AGENT” (Ajinomoto Co., Inc., priority 2011, published 2013)",
  "key": {"[1]": {"test_system": "HCT116 cells (human colorectal cancer cell line)", "experiment": "Annexin V apoptosis, combined use of 5FU and BCAA, HCT116 cells", "assay_type": "cell-based", "details": "72 hr, BCAA 2 mM, 5FU 2 μg/ml", "method": "HCT116 cells (human colorectal cancer cell line) were plated at a concentration of 4000 cells/well in a plate, and cultured under the following conditions for 72 hr: • LC 2.5% medium • BCAA (2 mM) • 5FU (2 μg/ml) • BCAA (2 mM)+5FU (2 μg/ml)\n(§1) After 72 hr, using ApoAlert Annexin V-FITC Apoptosis kit (Clontech), the cells were stained with annexin V and fixed, and apoptotic cells (%) were detected by Array Scan (Thermo Fisher)."}, "[2]": {"test_system": "MKN45 cells (human gastric cancer cell line)", "experiment": "WST-8 viable cell assay, 5FU and BCAA, MKN45 cells", "assay_type": "cell-based", "details": "72 hr, BCAA 2 mM or 4 mM, 5FU 0.05-1 μg/ml", "method": "MKN45 cells (human gastric cancer cell line) were plated in a 96 well plate at a concentration of 4000 cells/100 μl/well, and cultured under the following conditions for 72 hr: • LC medium (10% FBS) • LC medium +BCAA (2 mM or 4 mM) • LC medium +5FU (0.05 μg/ml, 0.1 μg/ml, 0.5 μg/ml or 1 μg/ml) • LC medium +BCAA (2 mM or 4 mM) +5FU (0.05 μg/ml, 0.1 μg/ml, 0.5 μg/ml or 1 μg/ml)\nAfter 72 hr, WST-8 reagent was added (10 μl/well) and, after color development for 1 hr, the absorbance of OD 450 nm was measured. The absorbance of each group was shown by a is relative value provided that the absorbance of a non-stimulation group was assumed to be 1000. WST-8 is reduced by intracellular dehydrogenase to produce water-soluble formazan. By directly measuring the absorbance of formazan at 450 nm, the number of viable cells can be easily measured. The cell number and the amount of produced formazan are in a linear proportional correlation."}, "[3]": {"test_system": "human breast cancer cell line MDA-MB231", "experiment": "Growth of MDA-MB231 cells (cell number, Hoechst staining)", "assay_type": "cell-based", "details": "5 days, 5-FU 0.25 μg/ml, BCAA 4 mM", "method": "MDA-MB231 cells were suspended in RPMI-10% (RPMI medium containing 10% FBS), and plated in a plate at 2000 cells/well. The next day, the medium was exchanged to those shown below, and the cells were further cultured for 5 days. • group 1: RPMI-10% • group 2: RPMI-10% containing BCAA (4 mM) • group 3: RPMI-10% containing 5-FU (0.25 μg/m1) • group 4: RPMI-10% containing 5-FU (0.25 μg/ml) +BCAA (4 mM)\nAfter 5 days, cellular nucleus was stained with Hoechst reagent, and the cell number was counted. In groups 1 and 2, cells were stained with anti-CD44 antibody, and the ratio of CD44 positive cells was analyzed by Array Scan using fluorescence microscopic quantification apparatus (Thermo Fisher)."}, "[4]": {"test_system": "HAK1B cells", "experiment": "HAK1B subcutaneous transplant in nude mice, tumor weight and volume", "assay_type": "in vivo, BALB/c nude mice", "details": "5FU 250 μg/tumor into the tumor, 3(w/w)% BCAA mixed feed for 2 weeks, vs control group", "method": "HAK1B cells were subcutaneously transplanted to 7-week-old female BALB/c nude mice (purchased from Japan Charles River) at 7,000,000 cells/mouse. After 1 week, the mice were grouped based on the tumor area. 5FU 250 μg/tumor (vehicle 10% DMSO/DW) was administered into the tumor (see Cancer Research, 70(11), 4687-4697, 2010), as well as a 3(w/w) % BCAA mixed feed or a 3(w/w) % casein mixed feed was given for 2 weeks. That is, treatments of 4 groups are as described below: • group 1: vehicle+casein mixed feed (control group) • group 2: 5FU+casein mixed feed • group 3: vehicle+BCAA mixed feed • group 4: 5FU+BCAA mixed feed\nUsing a vernier caliper, the tumor volume (longest Diameter×shortest diameter×height (mm^3)) was measured from the outer side of the tumor to monitor time-course changes in the tumor volume. On day 43, autopsy was performed, and the weight and volume of the tumor were measured."}, "[5]": {"test_system": "human hepatic cancer cell line HAK4", "experiment": "Annexin V apoptosis, combined use of 5FU and BCAA, HAK4 cells", "assay_type": "cell-based", "details": "72 hr, BCAA 2 mM, 5FU 2.5 μg/ml", "method": "Human hepatic cancer cell line HAK4 cells were plated at a concentration of 3000 cells/well in a plate, and cultured 30 under the following conditions for 72 hr: • LC 2.5% medium • BCAA (2 mM) • 5FU (2.5 μg/ml) • BCAA (2 mM)+5FU (2.5 μg/ml)\nas §1\nTo be specific, the cells in the 96 well plate were rinsed with 1×Binding Buffer, 40 μl of 1×Binding Buffer containing annexin V (1 μl) was added to each well, and the cells were incubated in the dark at room temperature for 5-15 min. The cells were washed, and fixed with 2% formaldehyde. 100 μl of PBS containing Hoechst33258 solution was added, and the cells were incubated in the dark for 5 min, and apoptotic cells (%) were detected by Array Scan."}},
  "data": [
    {"smiles": "O=c1[nH]cc(F)c(=O)[nH]1", "note": "[5FU, 5-fluorouracil]", "values": [
      {"measurement": "apoptotic cells (Annexin V positive cells)", "setting": "[1]", "result": "increased"},
      {"measurement": "number of viable cells (WST-8, OD 450 nm)", "setting": "[2]", "result": "decreased"},
      {"measurement": "number of viable cells (cell number)", "setting": "[3]", "result": "decreased"},
      {"measurement": "tumor volume", "setting": "[4]", "result": "significantly decreased"},
      {"measurement": "tumor weight", "setting": "[4]", "result": "significantly decreased"},
      {"measurement": "apoptotic cells (Annexin V positive cells)", "setting": "[5]", "result": "increased"}
    ]}
  ]
}
